Where two headings read alike, the source gives them in different places.
Experiments:
[1] = tested on: Jurkat HIV-luciferase clones; assay: Jurkat latency reversal assay; assay type: cell-based; conditions: Homo sapiens, 48 h; Jurkat latency reversal assay potency; read-out: Jurkat pEC50 (converted)
How it was run: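 EC50 and maximal activation versus vehicle were derived by four-parameter logistic regression of luciferase luminescence. The luminescence was induced in pooled Jurkat HIV-luciferase clones C16, 115 and N6 (5,000 cells/well) after 48 h at 37° C with duplicate 14-point, 3-fold dilutions starting at 10 μM (0.5% DMSO).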

[2] = molecular target: cIAP1-BIR2 (Homo sapiens (Human), UniProt Q13490); assay: BIR binding assay (FRET competition), cIAP1 BIR2
Sequence of cIAP1-BIR2 (Q13490 173-257): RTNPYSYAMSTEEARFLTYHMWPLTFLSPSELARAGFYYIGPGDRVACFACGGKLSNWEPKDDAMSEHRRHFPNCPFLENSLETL
How it was run: (§1)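 615/665 nm FRET ratio. Compound, His-domain and 200 nM AF647-SMAC peptide incubated 60 min, then 2 nM Eu-W1024 for 30 min. Domains: cIAP1-BIR3 50 nM; XIAP-BIR3 100 nM; cIAP1-BIR2, cIAP2-BIR2 325 nM each. 15-pt 3-fold series; variable-slope IC50.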

[3] = molecular target: cIAP2-BIR3 (Homo sapiens (Human), UniProt Q13489); assay: BIR binding assay (FRET competition), cIAP2 BIR3; conditions: for cIAP2 BIR3 vs BIR2 separation window: fold separation (FS) for cIAP2
Sequence of cIAP2-BIR3 (Q13489 238-349): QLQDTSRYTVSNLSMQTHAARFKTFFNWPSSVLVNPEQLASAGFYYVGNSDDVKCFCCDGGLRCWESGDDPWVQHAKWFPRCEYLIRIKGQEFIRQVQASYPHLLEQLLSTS

[4] = molecular target: cIAP2-BIR2 (Homo sapiens (Human), UniProt Q13489); assay: BIR binding assay (FRET competition), cIAP2 BIR2
Sequence of cIAP2-BIR2 (Q13489 158-242): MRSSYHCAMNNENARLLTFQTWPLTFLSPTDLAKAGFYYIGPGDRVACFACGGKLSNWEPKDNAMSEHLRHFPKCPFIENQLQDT
How it was run: as §1

[5] = molecular target: XIAP-BIR3 (Homo sapiens (Human), UniProt P98170); assay: BIR binding assay (FRET competition), XIAP BIR3; conditions: for XIAP BIR3 vs BIR2 separation window: fold separation (FS) for XIAP
Sequence of XIAP-BIR3 (P98170 241-356): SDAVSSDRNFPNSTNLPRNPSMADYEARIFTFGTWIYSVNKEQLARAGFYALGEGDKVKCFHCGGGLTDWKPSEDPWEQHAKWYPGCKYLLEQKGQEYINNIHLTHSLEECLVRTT
How it was run: as §1

[6] = molecular target: XIAP-BIR2 (Homo sapiens (Human), UniProt P98170); assay: BIR binding assay (FRET competition), XIAP BIR2
Sequence of XIAP-BIR2 (P98170 124-240): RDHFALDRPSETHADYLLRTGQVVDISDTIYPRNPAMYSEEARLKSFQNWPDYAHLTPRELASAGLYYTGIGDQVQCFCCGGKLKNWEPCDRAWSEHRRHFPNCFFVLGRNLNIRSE
How it was run: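 Competitive TR-FRET used His-tagged XIAP-BIR2 (200 nM) and 200 nM AlexaFluor647-labelled AVPIAQKSE SMAC peptide in HEPES buffer pH 7.4 with CHAPS, glycerol and DTT, incubated 60 min before 30 min with 2 nM Eu-W1024. The 615/665 nm ratio from a 15-point, 3-fold series was fit with a four-parameter model for IC50/pIC50.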

[7] = molecular target: cIAP1-BIR3 (Homo sapiens (Human), UniProt Q13490); assay: BIR binding assay (FRET competition), cIAP1 BIR3; conditions: for cIAP1 BIR3 vs BIR2 separation window: fold separation (FS) for cIAP1
Sequence of cIAP1-BIR3 (Q13490 253-363): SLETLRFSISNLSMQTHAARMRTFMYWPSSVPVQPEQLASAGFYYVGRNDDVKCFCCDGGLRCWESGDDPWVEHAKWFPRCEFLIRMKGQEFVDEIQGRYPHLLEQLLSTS
How it was run: as §1

[8] = FRET competition binding, read-out: XIAP BIR2 (pIC50) (converted)

SMILES	EC50 [1]	IC50 [2]	IC50 [3]	cIAP2 BIR3 vs BIR2 separation window [3]	IC50 [4]	IC50 [5]	XIAP BIR3 vs BIR2 separation window [5]	IC50 [6, 8]	IC50 [7]	cIAP1 BIR3 vs BIR2 separation window [7]	IC50 [6]
C[C@@H]1CN(CC(=O)N2CC(C)(C)c3[nH]c(=O)c(Cc4ccc(F)cc4)cc32)[C@@H](CN2CCO[C@H](COc3ccccc3Oc3ccccc3OC[C@@H]3CN(C[C@H]4CN[C@H](C)CN4CC(=O)N4CC(C)(C)c5[nH]c(=O)c(Cc6ccc(F)cc6)cc54)CCO3)C2)CN1 [Example 68, 1,1′-(2,2′-((3R,3′R,6R,6′R)-(((2S,2'S)-(((oxybis(2,1-phenylene))bis(oxy))bis(methylene))bis(morpholine-2,4-diyl))bis(methylene))bis(3-methylpiperazine-6,1-diyl))bis(acetyl))bis(6-(4-fluorobenzyl)-3,3-dimethyl-1,2,3,4-tetrahydro-5H-pyrrolo[3,2-b]pyridin-5-one)]	0.49 to 12.6 nM	3160 to 10000 nM	7.94 to 15.8 nM	+++ (10,000>FS>1,000)	1000 to 3160 nM	7.94 to 15.8 nM	+++ (10,000>FS>1,000)	10000 to 51300 nM	15.8 to 31.6 nM	+++ (10,000>FS>1,000)	–
C[C@@H]1CN(CC(=O)N2CC(C)(C)c3[nH]c(=O)c(Cc4ccc(F)cc4)cc32)[C@@H](CN2CCO[C@H](COc3cccc(OC[C@@H]4CN(C[C@H]5CN[C@H](C)CN5CC(=O)N5CC(C)(C)c6[nH]c(=O)c(Cc7ccc(F)cc7)cc65)CCO4)c3)C2)CN1 [Example 69, 1,1′-(2,2′-((3R,3′R,6R,6′R)-(((2S,2'S)-((1,3-phenylenebis(oxy))bis(methylene))bis(morpholine-2,4-diyl))bis(methylene))bis(3-methylpiperazine-6,1-diyl))bis(acetyl))bis(6-(4-fluorobenzyl)-3,3-dimethyl-1,2,3,4-tetrahydro-5H-pyrrolo[3,2-b]pyridin-5-one)]	0.49 to 12.6 nM	1000 to 3160 nM	7.94 to 15.8 nM	–	1000 to 3160 nM	15.8 to 31.6 nM	–	–	7.94 to 15.8 nM	–	10000 to 51300 nM
C[C@@H]1CN(CC(=O)N2CC(C)(C)c3[nH]c(=O)c(Cc4ccc(F)cc4)cc32)[C@@H](CN2CCO[C@H](COc3ccc(OC[C@@H]4CN(C[C@H]5CN[C@H](C)CN5CC(=O)N5CC(C)(C)c6[nH]c(=O)c(Cc7ccc(F)cc7)cc65)CCO4)cc3)C2)CN1 [Example 70, 1,1′-(2,2′-((3R,3′R,6R,6′R)-(((2S,2'S)-((1,4-phenylenebis(oxy))bis(methylene))bis(morpholine-2,4-diyl))bis(methylene))bis(3-methylpiperazine-6,1-diyl))bis(acetyl))bis(6-(4-fluorobenzyl)-3,3-dimethyl-1,2,3,4-tetrahydro-5H-pyrrolo[3,2-b]pyridin-5-one)]	0.49 to 12.6 nM	1000 to 3160 nM	7.94 to 15.8 nM	+++ (10,000>FS>1,000)	1000 to 3160 nM	15.8 to 31.6 nM	++++ (FS>10,000)	10000 to 51300 nM	15.8 to 31.6 nM	+++ (10,000>FS>1,000)	–
C[C@@H]1CN(CC(=O)N2CC(C)(C)c3[nH]c(=O)c(Cc4ccc(F)cc4)cc32)[C@@H](CN2CCO[C@H](COc3ccccc3OC[C@@H]3CN(C[C@H]4CN[C@H](C)CN4CC(=O)N4CC(C)(C)c5[nH]c(=O)c(Cc6ccc(F)cc6)cc54)CCO3)C2)CN1 [Example 71, 1,1′-(2,2′-((3R,3′R,6R,6′R)-(((2S,2'S)-((1,2-phenylenebis(oxy))bis(methylene))bis(morpholine-2,4-diyl))bis(methylene))bis(3-methylpiperazine-6,1-diyl))bis(acetyl))bis(6-(4-fluorobenzyl)-3,3-dimethyl-1,2,3,4-tetrahydro-5H-pyrrolo[3,2-b]pyridin-5-one)]	63.1 to 316 nM	1000 to 3160 nM	7.94 to 15.8 nM	+++ (10,000>FS>1,000)	1000 to 3160 nM	15.8 to 31.6 nM	++++ (FS>10,000)	10000 to 51300 nM	7.94 to 15.8 nM	++ (1,000>FS>100)	–
C[C@@H]1CN(CC(=O)N2CC(C)(C)c3[nH]c(=O)c(Cc4ccc(F)cc4)cc32)[C@@H](CN2CCO[C@H](COc3cccc(OC[C@@H]4CN(C[C@H]5CN[C@H](C)CN5CC(=O)N5CC(C)(C)c6[nH]c(=O)c(Cc7ccc(F)cc7)cc65)CCO4)c3F)C2)CN1 [Example 72, 1,1′-(2,2′-((3R,3′R,6R,6′R)-(((2S,2'S)-(((2-fluoro-1,3-phenylene)bis(oxy))bis(methylene))bis(morpholine-2,4-diyl))bis(methylene))bis(3-methylpiperazine-6,1-diyl))bis(acetyl))bis(6-(4-fluorobenzyl)-3,3-dimethyl-1,2,3,4-tetrahydro-5H-pyrrolo[3,2-b]pyridin-5-one)]	0.49 to 12.6 nM	22.4 to 1000 nM	15.8 to 31.6 nM	–	1000 to 3160 nM	15.8 to 31.6 nM	–	–	7.94 to 15.8 nM	–	10000 to 51300 nM
C[C@@H]1CN(CC(=O)N2CC(C)(C)c3[nH]c(=O)c(Cc4ccc(F)cc4)cc32)[C@@H](CN2CCO[C@H](COc3ccc(F)c(OC[C@@H]4CN(C[C@H]5CN[C@H](C)CN5CC(=O)N5CC(C)(C)c6[nH]c(=O)c(Cc7ccc(F)cc7)cc65)CCO4)c3)C2)CN1 [Example 75, 1,1′-(2,2′-((3R,3′R,6R,6′R)-(((2S,2'S)-(((4-fluoro-1,3-phenylene)bis(oxy))bis(methylene))bis(morpholine-2,4-diyl))bis(methylene))bis(3-methylpiperazine-6,1-diyl))bis(acetyl))bis(6-(4-fluorobenzyl)-3,3-dimethyl-1,2,3,4-tetrahydro-5H-pyrrolo[3,2-b]pyridin-5-one)]	0.49 to 12.6 nM	22.4 to 1000 nM	1.38 to 7.94 nM	+++ (10,000>FS>1,000)	22.4 to 1000 nM	1.38 to 7.94 nM	++++ (FS>10,000)	–	1.38 to 7.94 nM	+++ (10,000>FS>1,000)	10000 to 51300 nM
C[C@@H]1CN(CC(=O)N2CC(C)(C)c3[nH]c(=O)c(Cc4ccc(F)cc4)cc32)[C@@H](CN2CCO[C@H](COc3ccc(C#N)c(OC[C@@H]4CN(C[C@H]5CN[C@H](C)CN5CC(=O)N5CC(C)(C)c6[nH]c(=O)c(Cc7ccc(F)cc7)cc65)CCO4)c3)C2)CN1 [Example 77, 2,4-bis(((S)-4-(((2R,5R)-1-(2-(6-(4-fluorobenzyl)-3,3-dimethyl-5-oxo-2,3,4,5-tetrahydro-1H-pyrrolo[3,2-b]pyridin-1-yl)-2-oxoethyl)-5-methylpiperazin-2-yl)methyl)morpholin-2-yl)methoxy)benzonitrile]	12.6 to 63.1 nM	1000 to 3160 nM	1.38 to 7.94 nM	+++ (10,000>FS>1,000)	1000 to 3160 nM	15.8 to 31.6 nM	++++ (FS>10,000)	10000 to 51300 nM	1.38 to 7.94 nM	+++ (10,000>FS>1,000)	–
Cc1c(OC[C@@H]2CN(C[C@H]3CN[C@H](C)CN3CC(=O)N3CC(C)(C)c4[nH]c(=O)c(Cc5ccc(F)cc5)cc43)CCO2)cccc1OC[C@@H]1CN(C[C@H]2CN[C@H](C)CN2CC(=O)N2CC(C)(C)c3[nH]c(=O)c(Cc4ccc(F)cc4)cc32)CCO1 [Example 79, 1,1′-(2,2′-((3R,3′R,6R,6′R)-(((2S,2'S)-(((2-methyl-1,3-phenylene)bis(oxy))bis(methylene))bis(morpholine-2,4-diyl))bis(methylene))bis(3-methylpiperazine-6,1-diyl))bis(acetyl))bis(6-(4-fluorobenzyl)-3,3-dimethyl-1,2,3,4-tetrahydro-5H-pyrrolo[3,2-b]pyridin-5-one)]	0.49 to 12.6 nM	1000 to 3160 nM	1.38 to 7.94 nM	+++ (10,000>FS>1,000)	3160 to 10000 nM	7.94 to 15.8 nM	++++ (FS>10,000)	10000 to 51300 nM	1.38 to 7.94 nM	+++ (10,000>FS>1,000)	–
C[C@@H]1CN(CC(=O)N2CC(C)(C)c3[nH]c(=O)c(Cc4ccc(F)cc4)cc32)[C@@H](CN2CCO[C@H](COCc3cccc(COC[C@@H]4CN(C[C@H]5CN[C@H](C)CN5CC(=O)N5CC(C)(C)c6[nH]c(=O)c(Cc7ccc(F)cc7)cc65)CCO4)c3)C2)CN1 [Example 80, 1,1′-(2,2′-((3R,3′R,6R,6′R)-(((2S,2'S)-(((1,3-phenylenebis(methylene))bis(oxy))bis(methylene))bis(morpholine-2,4-diyl))bis(methylene))bis(3-methylpiperazine-6,1-diyl))bis(acetyl))bis(6-(4-fluorobenzyl)-3,3-dimethyl-1,2,3,4-tetrahydro-5H-pyrrolo[3,2-b]pyridin-5-one)]	0.49 to 12.6 nM	1000 to 3160 nM	1.38 to 7.94 nM	+++ (10,000>FS>1,000)	3160 to 10000 nM	1.38 to 7.94 nM	++++ (FS>10,000)	10000 to 51300 nM	1.38 to 7.94 nM	+++ (10,000>FS>1,000)	–

Reference: patent US20250326771A1, “PIPERAZINE DERIVATIVES USEFUL IN HIV THERAPY” (VIIV HEALTHCARE COMPANY, priority 2022, published 2025)
